Test results reported in patent publication US8377967B2, “Piperidine derivative” (Nippon Zoki Pharmaceutical Co., Ltd., priority 2008, dated 2013).

Experiments:
[1] = tested on: histamine-induced vascular hyperpermeability reaction; assay: Rat histamine-induced vascular hyperpermeability reaction (in vivo antihistamine action); settings: SD male rat, oral administration 1 hour before intracutaneous histamine, leaked Evans Blue pigment
Protocol: An SD male rat (SPF) of 180 g in weight was previously fed for one week or more by allowing the rat to take a solid feed and tap water ad libitum, under the environment setting of a temperature of 22° C., humidity of 55% and an artificial illumination of 12 hours a day (light phase 8 am to 8 pm), and the rat was fasted overnight to be used for the experiment. Histamine•dihydrochloride (hereinafter referred to as histamine) and Evans Blue were used by dissolving each in physiological saline upon use. A substance to be tested was dissolved in water for injection or suspended in 0.5% carboxymethyl cellulose sodium, and the rat was orally administered with the solution or suspension (dose volume: 5 mL/kg body weight). After 1 hour from the administration, the physiological saline and the histamine solution were each intracutaneously injected to two locations (20 μg/0.05 ml/location) each on a back part of the rat of which hair was sheared with an electric clipper while anesthetizing with an ether. A 0.5% Evans Blue-containing physiological saline was injected intravenously to the tail of the rat (1 mL/200 g body weight) immediately before the intracutaneous injection of the histamine.
After 30 minutes, the animal was decapitated, and allowed to bleed lethally, and the skin was removed to measure an amount of leaked pigment in the blue-stained portion. The measurement of the amount of leaked pigment was carried out as follows. Skins of the pigment leaking site were cut out at two locations, 1 mL of a 2 mol/L aqueous potassium hydroxide solution was added thereto in a test tube, and the test tube was allowed to stand overnight at 37° C. to dissolve. Thereafter, 6 mL of a 1:3 mixed solution of 0.67 mol/L phosphoric acid and acetone was added to the solution, and the mixture was vigorously shaken for 10 minutes. Thereafter, the mixture was filtered, and the absorbance of the filtrate at 620 nm was measured. The absorbance obtained from the two locations of the sites injected with physiological saline, as blank value, was used for a compensation. The amount of leaked pigment was calculated from the calibration curve of Evans Blue at 620 nm.

cerebral H1 receptor = molecular target: T1, cerebral H1 receptor (Mus musculus, UniProt P70174); assay: Murine cerebral H1 receptor occupying content (ex vivo); type: in vivo; settings: for ED50: ICR male mouse, oral administration, brain excised after 1 hour, 3H-pyrilamine binding in brain homogenate, larger = lower brain transfer, read-out: ID50 (the source's name); for ID50 (mg/kg)/ ED50 (mg/kg): ID50 of cerebral receptor binding test (Table 20) divided by ED50 of vascular hyperpermeability test (Table 19)
T1 construct: the entire brain, except for cerebellum and medulla oblongatae, was rapidly excised; from tissue; host or cells: brain homogenate (without cerebellum and medulla oblongata) of orally dosed ICR male mice
Protocol: A 6-week-old ICR male mouse was previously fed for one week or more by allowing the mouse to take a solid feed and tap water ad libitum, under the environment setting of a temperature of 22° C., humidity of 55% and an artificial illumination of 12 hours a day, and the mouse was fasted overnight to be used for the experiment. A substance to be tested was dissolved with water for injection or suspended in 0.5% carboxymethyl cellulose solution, and the solution or suspension was orally administered to the mouse (dose volume: 0.1 mL/10 g body weight). After 1 hour from the oral administration, the mouse was decapitated, and the entire brain, except for cerebellum and medulla oblongatae, was rapidly excised. The excised brain tissue was homogenized with Polytron (manufactured by Kinematica) in an ice-cooled 50 mmol/L phosphate buffered saline (pH 7.4, 100 mg/1.9 mL).
To a test tube for reaction (TPX-Tube) were added 180 μL of the brain homogenate, and 10 μL of ^3H-pyrilamine solution (final concentration: 2 nmol/L) and 10 μL of a non-labeled pyrilamine solution (final concentration: 200 μmol/L) or a 50 mmol/L phosphate buffered saline, and the mixture was incubated at room temperature for 45 minutes, and 2.0 mL of an ice-cooled, 50 mmol/L phosphate buffered saline was then added thereto to stop the reaction. The reaction mixture was filtered with a GF/B filter (manufactured by […]), and the […] was placed in a vial and dried overnight at 60 degrees. After drying, 10 mL of a scintillator (AL-1, toluene-based, manufactured by DOJINDO LABORATORIES) was added to the product, and the disintegration per minute (dpm) was measured with a liquid scintillation counter (manufactured by Packard, U.S.A., TRI-CARB 2700TR) (5 minutes/vial).

T1 sequence (P70174 whole entry): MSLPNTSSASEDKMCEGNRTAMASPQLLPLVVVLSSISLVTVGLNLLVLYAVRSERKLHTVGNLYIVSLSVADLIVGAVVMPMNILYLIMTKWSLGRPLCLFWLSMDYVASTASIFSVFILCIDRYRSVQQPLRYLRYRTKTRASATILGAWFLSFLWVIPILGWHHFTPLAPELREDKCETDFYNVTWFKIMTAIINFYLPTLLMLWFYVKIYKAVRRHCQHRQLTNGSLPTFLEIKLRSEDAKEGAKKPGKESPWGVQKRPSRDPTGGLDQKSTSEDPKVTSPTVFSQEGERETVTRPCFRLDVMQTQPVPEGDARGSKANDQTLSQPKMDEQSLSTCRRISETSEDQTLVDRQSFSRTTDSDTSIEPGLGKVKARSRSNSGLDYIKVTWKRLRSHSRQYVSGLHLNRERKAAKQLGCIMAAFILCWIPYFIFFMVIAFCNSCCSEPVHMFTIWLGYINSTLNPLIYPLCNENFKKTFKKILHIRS

Row | Compound | ED50 [1] [mg/kg] | ED50 (cerebral H1 receptor) [mg/kg] | ID50 (mg/kg)/ ED50 (mg/kg) (cerebral H1 receptor)
1 | CN1CCC(=C2c3cc(C(=O)O)ccc3OCc3ccsc32)CC1 [Compound 26, [4-(1-Methylpiperidin-4-ylidene)-4,10-dihydro-9-oxa-3-thiabenzo[f]azulen-6-yl]carboxylic acid] | 0.059 | 4.8 | 81.4
2 | CN1CCC(=C2c3cc(C=CC(=O)O)ccc3OCc3ccsc32)CC1 [Compound 35, 3-[4-(1-Methylpiperidin-4-ylidene)-4,10-dihydro-9-oxa-3-thiabenzo[f]azulen-6-yl]acrylic acid] | 0.28 | 28.4 | 101.4
3 | CN1CCC(=C2c3ccccc3CC(=O)c3sc(C=CC(=O)O)cc32)CC1 [Compound 48, 3-[4-(1-Methylpiperidin-4-ylidene)-10-oxo-9,10-dihydro-4H-1-thiabenzo[f]azulen-2-yl]acrylic acid] | 0.68 | 95.5 | 140.4
4 | CN1CCC(=C2c3cc(CC(=O)O)ccc3OCc3ccsc32)CC1.Cl [Compound 54, [4-(1-Methylpiperidin-4-ylidene)-4,10-dihydro-9-oxa-3-thiabenzo[f]azulen-6-yl]acetic acid hydrochloride] | 0.027 | 9.3 | 344.4
5 | CN1CCC(=C2c3ccccc3CCc3sc(C(C)(C)C(=O)O)cc32)CC1 [Compound 65, 2-Methyl-2-[4-(1-methylpiperidin-4-ylidene)-9,10-dihydro-4H-1-thiabenzo[f]azulen-2-yl]propionic acid] | 0.14 | 19.5 | 139.3
6 | CN1CCC(=C2c3cc(C(C)(C)C(=O)O)ccc3OCc3ccsc32)CC1 [Compound 68, 2-Methyl-2-[4-(1-Methylpiperidin-4-ylidene)-4,10-dihydro-9-oxa-3-thiabenzo[f]azulen-6-yl]propionic acid] | 0.13 | 14.6 | 112.3
7 | CCN1CCC(=C2c3ccccc3CCc3sc(C(=O)O)cc32)CC1.Cl [Compound 108, [4-(1-Ethylpiperidin-4-ylidene)-9,10-dihydro-4H-1-thiabenzo[f]azulen-2-yl]carboxylic acid hydrochloride] | 1.16 | 110 | 95.3
8 | CCOC(=O)Cc1ccc2c(c1)C(=C1CCNCC1)c1sccc1CO2.Cl [Compound 113, Ethyl (4-piperidin-4-ylidene-4,10-dihydro-9-oxa-3-thiabenzo[f]azulen-6-yl)acetate hydrochloride] | 0.072 | 98.7 | 1370.8
9 | CN1CCC(=C2c3cc(CC(=O)O)ccc3OCc3sccc32)CC1 [Compound 117, [4-(1-Methylpiperidin-4-ylidene)-4,10-dihydro-9-oxa-1-thiabenzo[f]azulen-6-yl]acetic acid] | 0.027 | 4.2 | 155.6
10 | O=C(O)Cc1ccc2c(c1)C(=C1CCN(CCO)CC1)c1sccc1CO2 [Compound 119, {4-[1-(2-Hydroxyethyl)piperidin-4-ylidene]-4,10-dihydro-9-oxa-3-thiabenzo[f]azulen-6-yl}acetic acid] | 1.1 | 74.5 | 67.7
11 | COC(=O)Cc1ccc2c(c1)C(=C1CCNCC1)c1sccc1CO2.Cl [Compound 126, Methyl (4-piperidin-4-ylidene-4,10-dihydro-9-oxa-3-thiabenzo[f]azulen-6-yl)acetate hydrochloride] | 0.446 | 237 | 530.7
12 | CCN1CCC(=C2c3cc(CC(=O)O)ccc3OCc3ccsc32)CC1 [Compound 128, [4-(1-Ethylpiperidin-4-ylidene)-4,10-dihydro-9-oxa-3-thiabenzo[f]azulen-6-yl]acetic acid] | ~0.1 | 7.45 | 74.5
13 | CC(C)N1CCC(=C2c3cc(CC(=O)O)ccc3OCc3ccsc32)CC1 [Compound 132, [4-(1-Isopropylpiperidin-4-ylidene)-4,10-dihydro-9-oxa-3-thiabenzo[f]azulen-6-yl]acetic acid] | 0.17 | 37.5 | 220.6
14 | COC(=O)CCCc1ccc2c(c1)C(=C1CCNCC1)c1sccc1CO2.Cl [Compound 135, Methyl 4-(4-piperidin-4-ylidene-4,10-dihydro-9-oxa-3-thiabenzo[f]azulen-6-yl)butyrate hydrochloride] | 2.33 | > 200 | >85.8
15 | CCCOC(=O)Cc1ccc2c(c1)C(=C1CCNCC1)c1sccc1CO2.Cl [Compound 137, Propyl (4-piperidin-4-ylidene-4,10-dihydro-9-oxa-3-thiabenzo[f]azulen-6-yl)acetate hydrochloride] | 0.24 | > 200 | >833.3
16 | O=C(O)Cc1ccc2c(c1)C(=C1CCN(CCCO)CC1)c1sccc1CO2 [Compound 139, {4-[1-(3-Hydroxypropyl)piperidin-4-ylidene]-4,10-dihydro-9-oxa-3-thiabenzo[f]azulen-6-yl}acetic acid] | 2.24 | > 200 | >89.3
17 | CCOC(=O)C(C)(C)c1cc2c(s1)CCc1ccccc1C2=C1CCNCC1.Cl [Compound 152, Ethyl 2-methyl-2-(4-piperidin-4-ylidene-9,10-dihydro-4H-1-thiabenzo[f]azulen-2-yl)propionate hydrochloride] | 1.49 | 199 | 133.8
18 | CC(C)(C(=O)O)c1cc2c(s1)CCc1ccccc1C2=C1CCNCC1.Cl [Compound 153, 2-Methyl-2-(4-piperidin-4-ylidene-9,10-dihydro-4H-1-thiabenzo[f]azulen-2-yl)propionic acid hydrochloride] | 2.61 | > 200 | >76.6
19 | CCN1CCC(=C2c3ccccc3CCc3sc(C(C)(C)C(=O)O)cc32)CC1 [Compound 155, 2-[4-(1-Ethylpiperidin-4-ylidene)-9,10-dihydro-4H-1-thiabenzo[f]azulen-2-yl]-2-methylpropionic acid] | 0.334 | 66.6 | 199.4
20 | COC(=O)Cc1ccc2c(c1)C(=C1CCN(CC(C)=O)CC1)c1sccc1CO2.Cl [Compound 167, Methyl {4-[1-(2-oxopropyl)piperidin-4-ylidene]-4,10-dihydro-9-oxa-3-thiabenzo[f]azulen-6-yl}acetate hydrochloride] | 0.194 | 35.1 | 180.9
21 | CC(=O)CN1CCC(=C2c3cc(CC(=O)O)ccc3OCc3ccsc32)CC1 [Compound 168, {4-[1-(2-Oxopropyl)piperidin-4-ylidene]-4,10-dihydro-9-oxa-3-thiabenzo[f]azulen-6-yl}acetic acid] | 0.264 | 10.4 | 39.4
22 | CC(=O)CCCN1CCC(=C2c3cc(CC(=O)O)ccc3OCc3ccsc32)CC1 [Compound 170, {4-[1-(4-Oxopentyl)piperidin-4-ylidene]-4,10-dihydro-9-oxa-3-thiabenzo[f]azulen-6-yl}acetic acid] | 0.614 | 70.3 | 114.5
